Assay results: ChEMBL document CHEMBL3217616, “Modular assembly of cytotoxic acetogenin mimetics by click linkage with nitrogen functionalities” (Medchemcomm, 2011)

Legend:
[1] = system: K562; experiment: Cytotoxicity against human K562 cells after 48 hrs by CCK-8 assay; format: functional, cell-based; conditions: K562, 48 h
[2] = system: Kasumi 1; experiment: Cytotoxicity against human Kasumi-1 cells after 48 hrs by CCK-8 assay; format: functional, cell-based; conditions: Kasumi 1, 48 h
[3] = system: HL-60; experiment: Cytotoxicity against human HL60 cells after 48 hrs by CCK-8 assay; format: functional, cell-based; conditions: HL-60, 48 h
[4] = system: Jurkat; experiment: Cytotoxicity against human Jurkat cells after 48 hrs by CCK-8 assay; format: functional, cell-based
[5] = system: MCF7; experiment: Cytotoxicity against human MCF7 cells after 48 hrs by CCK-8 assay; format: functional, cell-based; conditions: MCF7, 48 h
[6] = Cytotoxicity against human MDA-MB-435S cells after 48 hrs by CCK-8 assay; format: functional, cell-based
[7] = system: BT-549; experiment: Cytotoxicity against human BT549 cells after 48 hrs by CCK-8 assay; format: functional, cell-based; conditions: BT-549, 48 h
[8] = system: BT-474; experiment: Cytotoxicity against human BT474 cells after 48 hrs by CCK-8 assay; format: functional, cell-based; conditions: BT-474, 48 h
[9] = system: SK-BR-3; experiment: Cytotoxicity against human SK-BR-3 cells after 48 hrs by CCK-8 assay; format: functional, cell-based; conditions: SK-BR-3, 48 h
[10] = system: SW-620; experiment: Cytotoxicity against human SW620 cells after 48 hrs by CCK-8 assay; format: functional, cell-based; conditions: SW-620, 48 h
[11] = Cytotoxicity against human NB4 cells assessed as growth inhibition at 0.2 uM after 48 hrs by CCK-8 assay; format: functional; conditions: NB-4, 48 h
[12] = Cytotoxicity against human NB4 cells assessed as growth inhibition at 5 to 25 uM after 48 hrs by CCK-8 assay; format: functional, NB-4
[13] = system: U-937; experiment: Cytotoxicity against human U937 cells after 48 hrs by CCK-8 assay; format: functional, cell-based; conditions: U-937, 48 h
[14] = Cytotoxicity against human NB4 cells after 48 hrs by CCK-8 assay; format: functional, cell-based; conditions: NB-4, 48 h

CCCCCCCCCC[C@H](O)COCCOC[C@@H](O)CCC1CCN(CCCCCCCCCC2=C[C@H](C)OC2=O)CC1
IC50 [1]: 3.1 µM
IC50 [2]: 3.9 µM
IC50 [3]: > 25 µM
IC50 [4]: 1.2 µM
IC50 [5]: > 25 µM
IC50 [6]: 5 µM
IC50 [7]: 2.2 µM
IC50 [8]: > 25 µM
IC50 [9]: 8 µM
IC50 [10]: 8.1 µM
inhibition at 0.2 µM [11]: 6.2%
inhibition (INH) [12]: >70%
IC50 [13]: 4.4 µM
IC50 [14]: 1.9 µM

CCCCCCCCCC[C@H](O)COCCOC[C@@H](O)CC(=O)NCCCCCCCCCC1=C[C@H](C)OC1=O
IC50 [1]: 15 µM
IC50 [2]: 16.7 µM
IC50 [3]: 7.4 µM
IC50 [4]: 14 µM
IC50 [5]: > 25 µM
IC50 [6]: > 25 µM
IC50 [7]: > 25 µM
IC50 [8]: > 25 µM
IC50 [9]: > 25 µM
IC50 [10]: > 25 µM
IC50 [13]: 5.2 µM
IC50 [14]: 4.5 µM

CCCCCCCCCC[C@H](O)COCCOC[C@@H](O)Cc1cn(CCCCCCCCCC2=C[C@H](C)OC2=O)nn1
IC50 [1]: 8.5 µM
IC50 [2]: 17.8 µM
IC50 [3]: > 25 µM
IC50 [4]: > 25 µM
IC50 [5]: > 25 µM
IC50 [6]: > 25 µM
IC50 [7]: > 25 µM
IC50 [8]: > 25 µM
IC50 [9]: > 25 µM
IC50 [10]: > 25 µM
IC50 [13]: > 25 µM
IC50 [14]: 3.2 µM

CCCCCCCCCC[C@H](O)COCCOC[C@@H](O)CCCCCCCCCCCCC1=C[C@H](C)OC1=O
IC50 [1]: 2.7 µM
IC50 [2]: 1.1 µM
IC50 [3]: > 25 µM
IC50 [4]: 2.6 µM
IC50 [5]: > 25 µM
IC50 [6]: > 25 µM
IC50 [7]: 3.3 µM
IC50 [8]: > 25 µM
IC50 [9]: 22.1 µM
IC50 [10]: > 25 µM
inhibition at 0.2 µM [11]: 48.6%
inhibition (INH) [12]: >70%
IC50 [13]: 1.2 µM
IC50 [14]: 0.7 µM
